According to patent US5106853A, “Oxadiazole and its salts, their use in treating dementia” (Merck Sharp & Dohme, Ltd., priority 1989, dated 1992):
Like-named read-outs stand apart in the source and are kept apart here.

Legend:
[1] = biological target: T1, M-2 receptor (Cavia porcellus, UniProt H0VRN8); assay: Functional selectivity, guinea-pig atrium (methods of J. Med. Chem. (1987), 30, 969-975); type: cell-based
T1 construct: from tissue; host or cells: guinea-pig atrium
T1 sequence (H0VRN8 1-466): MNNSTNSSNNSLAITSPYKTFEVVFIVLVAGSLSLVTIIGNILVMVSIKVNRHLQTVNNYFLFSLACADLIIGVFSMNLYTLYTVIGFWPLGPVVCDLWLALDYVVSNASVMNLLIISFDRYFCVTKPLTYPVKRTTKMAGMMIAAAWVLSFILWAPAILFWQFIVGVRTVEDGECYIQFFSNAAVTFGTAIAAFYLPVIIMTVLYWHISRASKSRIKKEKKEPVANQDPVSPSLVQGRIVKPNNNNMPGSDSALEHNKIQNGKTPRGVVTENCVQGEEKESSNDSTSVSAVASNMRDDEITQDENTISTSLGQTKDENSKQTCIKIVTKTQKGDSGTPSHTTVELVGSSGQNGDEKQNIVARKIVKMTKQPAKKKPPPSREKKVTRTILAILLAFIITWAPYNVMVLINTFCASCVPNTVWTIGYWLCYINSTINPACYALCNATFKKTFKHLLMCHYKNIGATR
Procedure: (§1) B. By the methods disclosed in J. Med. Chem. (1987), 30, 969-975 was determined the functional selectivity of compound (I): […]

[2] = biological target: muscarinic acetylcholine receptors; assay: NMS/OXO-M displacement: [3H]NMS and [3H]OXO-M Kapp (method of Br. J. Pharmacol. (1988), 93, 437-445); type: binding; details: for Kd: Kapp = corrected dissociation constant allowing for ligand occupancy
Procedure: A. By the method disclosed in Br. J. Pharmacol. (1988), 93, 437-445 were determined the NMS/OXO-M data for the compound (I): [^3 H]NMS Kapp =0.025 μM; [^3 H]OXO-M Kapp =0.0017 μM; ratio NMS/OXO-M=15; (Kapp =corrected dissociation constant allowing for ligand occupancy).

[3] = biological target: T2, M-3 receptor (Cavia porcellus, UniProt H0W1Z3); assay: Functional selectivity, guinea-pig myenteric plexus/longitudinal muscle strip (methods of J. Med. Chem. (1987), 30, 969-975); type: cell-based
T2 construct: from tissue; host or cells: guinea-pig myenteric plexus/longitudinal muscle strip
Procedure: as §1

[4] = biological target: T3, M-1 receptor (Rattus norvegicus, UniProt P08482); assay: Functional selectivity, rat superior cervical ganglion (methods of J. Med. Chem. (1987), 30, 969-975); type: cell-based; details: mean ± S.D. (n = 5)
T3 construct: from tissue
T3 sequence (P08482 1-460): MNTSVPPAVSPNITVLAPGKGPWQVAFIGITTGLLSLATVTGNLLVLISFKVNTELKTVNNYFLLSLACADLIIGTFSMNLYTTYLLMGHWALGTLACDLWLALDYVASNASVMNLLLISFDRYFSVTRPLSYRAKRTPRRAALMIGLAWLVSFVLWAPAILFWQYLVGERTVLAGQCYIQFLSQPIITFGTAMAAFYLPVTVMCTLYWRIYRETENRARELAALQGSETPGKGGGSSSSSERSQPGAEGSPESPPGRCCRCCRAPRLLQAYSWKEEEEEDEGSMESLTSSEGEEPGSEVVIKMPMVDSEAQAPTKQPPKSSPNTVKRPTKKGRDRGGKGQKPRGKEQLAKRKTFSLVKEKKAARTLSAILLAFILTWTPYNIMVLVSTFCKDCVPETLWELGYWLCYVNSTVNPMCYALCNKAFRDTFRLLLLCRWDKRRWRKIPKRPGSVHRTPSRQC
Procedure: as §1

[5] = relative maximum, read-out: Rel. Max.

T2 sequence (H0W1Z3 1-590): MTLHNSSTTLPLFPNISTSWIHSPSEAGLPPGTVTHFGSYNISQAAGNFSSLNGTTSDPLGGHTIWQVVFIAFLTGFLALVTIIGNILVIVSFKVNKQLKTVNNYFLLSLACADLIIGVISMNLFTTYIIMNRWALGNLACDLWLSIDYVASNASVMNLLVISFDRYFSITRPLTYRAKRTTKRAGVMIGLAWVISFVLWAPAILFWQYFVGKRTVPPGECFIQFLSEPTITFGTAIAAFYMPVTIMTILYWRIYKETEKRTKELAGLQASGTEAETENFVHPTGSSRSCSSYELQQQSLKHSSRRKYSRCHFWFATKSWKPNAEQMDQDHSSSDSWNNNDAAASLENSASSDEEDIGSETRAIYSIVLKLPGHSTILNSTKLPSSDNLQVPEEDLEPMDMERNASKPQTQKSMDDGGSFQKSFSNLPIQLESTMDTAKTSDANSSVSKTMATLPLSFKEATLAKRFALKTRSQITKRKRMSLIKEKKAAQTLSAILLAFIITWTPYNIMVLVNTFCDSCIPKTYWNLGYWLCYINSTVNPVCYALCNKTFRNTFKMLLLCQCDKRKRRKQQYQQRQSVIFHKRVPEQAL

C1CC1c1noc([C@H]2CN3CC[C@H]2C3)n1 [compound (I), (3R, 4R)-3-(3-cyclopropyl-1,2,4-oxadiazol-5-yl)-1-azabicyclo[2.2.1]heptane]
Kb ([1]; 95% confidence limits 7.80-8.20, n = 10, slope of Arunlakshana-Schild plot not significantly different from unity, read-out: pA2 (converted)): 10 nM | Emax [1, 5]: 0% | Kd ([2]; radioligand [3H]NMS, read-out: [3H]NMS Kapp): 25 nM | Kd ([2]; radioligand [3H]OXO-M, read-out: [3H]OXO-M Kapp): 1.7 nM | ratio NMS/OXO-M ([2]; ratio of Kapp values): 15 | Kb ([3]; 95% confidence limits 7.90-8.40, n = 12, slope of Arunlakshana-Schild plot not significantly different from unity, read-out: pA2 (converted)): 7.08 nM | Emax [3, 5]: 0% | EC50 [4]: 63.1 nM | Emax [4, 5]: 55 ± 10%
